Measurements: article PMC4965013, “Open Source Drug Discovery with the Malaria Box Compound Collection for Neglected Diseases and Beyond” (PLoS Pathogens, 2016)
pEC50: −log10 of the molar value.

Tests used:
[1] = system: P. falciparum; assay: EC50 listed in S2 Table Metabolomics (used to set the concentration tested); assay type: cell-based; settings: Plasmodium falciparum; EC50 used for Factor_XEC50 in metabolomics; read-out: EC50_nM
[2] = system: P. falciparum 3D7 trophozoites; assay: Metabolomic fingerprint profiling LC-MS; assay type: cell-based, Plasmodium falciparum; set-up: UDP-D-glucose / ADP-D-glucose: unit not given here; settings: for Acetyllysine / N-acetyl-L-ornithine / N-carbamoyl-L-aspartate / NADPH / dAMP / dCMP / dTDP / dTMP / dTTP / dihydroorotate / orotate / DLH / DLS/SDL/SID / PD / PEE / PVNF / 3-phosphoglycerate / ADP-D-glucose / ATP / CDP / D-sedoheptulose-1/7-phosphate / FAD / GMP / NAD+ / NADP+ / Octoluse Bisphosphate / Pyroglutamic acid / UDP-D-glucose / UDP-D-glucuronate / UDP-N-acetyl-glucosamine / UDP / UMP / UTP / a-ketoglutarate / citrate/isocitrate / cytidine / dATP / dGMP/AMP / fumarate / glucose-1/6-phosphate / glycerate / guanine / guanosine / hypoxanthine / indole / inosine / nicotinate / ornithine / phosphoenolpyruvate / pyruvate / ribose-phosphate / sarcosine/alanine / sn-glycerol-3-phosphate / succinate/methylmalonic acid / uridine / xanthosine: S2 Table Metabolomics; for Acetyllysine: metabolite Acetyllysine; for N-acetyl-L-ornithine: metabolite N-acetyl-L-ornithine; for N-carbamoyl-L-aspartate: metabolite N-carbamoyl-L-aspartate; for NADPH: metabolite NADPH; for dAMP: metabolite dAMP; for dCMP: metabolite dCMP; for dTDP: metabolite dTDP; for dTMP: metabolite dTMP; for dTTP: metabolite dTTP; for dihydroorotate: metabolite dihydroorotate; for orotate: metabolite orotate; for DLH: peptide DLH; for DLS/SDL/SID: peptide DLS/SDL/SID; for PD: peptide PD; for PEE: peptide PEE; for PVNF: peptide PVNF; for 3-phosphoglycerate: metabolite 3-phosphoglycerate; for ADP-D-glucose: metabolite ADP-D-glucose; for ATP: metabolite ATP; for CDP: metabolite CDP; for CDP / D-sedoheptulose-1/7-phosphate / GMP / Octoluse Bisphosphate / UDP / UMP / UTP / citrate/isocitrate / dGMP/AMP / fumarate / glucose-1/6-phosphate / glycerate / guanine / guanosine / inosine / pyruvate / sarcosine/alanine / succinate/methylmalonic acid / uridine / xanthosine: change in metabolite level after compound treatment; for D-sedoheptulose-1/7-phosphate: metabolite D-sedoheptulose-1/7-phosphate; for FAD: metabolite FAD; for GMP: metabolite GMP; for NAD+: metabolite NAD+; for NADP+: metabolite NADP+; for Octoluse Bisphosphate: metabolite Octoluse Bisphosphate; for Pyroglutamic acid: metabolite Pyroglutamic acid; for UDP-D-glucose: metabolite UDP-D-glucose; for UDP-D-glucuronate: metabolite UDP-D-glucuronate; for UDP-N-acetyl-glucosamine: metabolite UDP-N-acetyl-glucosamine; for UDP: metabolite UDP; for UMP: metabolite UMP; for UTP: metabolite UTP; for a-ketoglutarate: metabolite a-ketoglutarate; for citrate/isocitrate: metabolite citrate/isocitrate; for cytidine: metabolite cytidine; for dATP: metabolite dATP; for dGMP/AMP: metabolite dGMP/AMP; for fumarate: metabolite fumarate; for glucose-1/6-phosphate: metabolite glucose-1/6-phosphate; for glycerate: metabolite glycerate; for guanine: metabolite guanine; for guanosine: metabolite guanosine; for hypoxanthine: metabolite hypoxanthine; for indole: metabolite indole; for inosine: metabolite inosine; for 2_3-Diphosphoglyceric acid / 4-phosphopantothenate / 6-phospho-D-gluconate / FMN / IMP / Pyrophosphate / Sedoheptoluse bisphosphate / cyclic-AMP / glutathione disulfide / lactate / myo-inositol: metabolite level change after treatment; for nicotinate: metabolite nicotinate; for ornithine: metabolite ornithine; for phosphoenolpyruvate: metabolite phosphoenolpyruvate; for pyruvate: metabolite pyruvate; for ribose-phosphate: metabolite ribose-phosphate; for sarcosine/alanine: metabolite sarcosine/alanine; for sn-glycerol-3-phosphate: metabolite sn-glycerol-3-phosphate; for succinate/methylmalonic acid: metabolite succinate/methylmalonic acid; for uridine: metabolite uridine; for xanthosine: metabolite xanthosine

`c1ccc2cc3c(Nc4ccc(N5CCOCC5)cc4)ccnc3cc2c1` [MMV006861] showed a pEC50 [1] of 6.60, an Acetyllysine [2] of 0.001155 and a N-acetyl-L-ornithine [2] of 0.1202. It also gave a N-carbamoyl-L-aspartate [2] of 0.09461, an NADPH [2] of 0.6132 and a dAMP [2] of -0.1929. For the same compound, the dCMP [2] was 0.2768, the dTDP [2] was 0.03656 and the dTMP [2] was 0.1106. The dTTP [2] was -0.07535, the dihydroorotate [2] was 0.311 and the orotate [2] was -0.21. For the same compound, the DLH [2] was 0.09611, the DLS/SDL/SID [2] was 0.08895 and the PD [2] was 0.008487. For the same compound, the PEE [2] was 0.1992, the PVNF [2] was -0.07307 and the 3-phosphoglycerate [2] was -0.2621. It also gave an ADP-D-glucose [2] of 0.04555, an ATP [2] of 0.1894 and a CDP [2] of 0.09878. It also gave a D-sedoheptulose-1/7-phosphate [2] of 0.1691, an FAD [2] of 0.1498 and a GMP [2] of 0.6017. The “NAD+” value [2] was 0.04038, the “NADP+” value [2] was 0.01746 and the “Octoluse Bisphosphate” value [2] was 0.06917. It also gave a Pyroglutamic acid [2] of 0.7013, a UDP-D-glucose [2] of -0.003086 and a UDP-D-glucuronate [2] of -0.03493. For the same compound, the UDP-N-acetyl-glucosamine [2] was 0.008052, the UDP [2] was 0.1461 and the UMP [2] was -0.13. The UTP [2] was -0.06454, the a-ketoglutarate [2] was -0.4694 and the citrate/isocitrate [2] was -0.2815. The cytidine [2] was -0.002725, the dATP [2] was -0.03123 and the dGMP/AMP [2] was -0.0595. The fumarate [2] was -0.1611, the glucose-1/6-phosphate [2] was 0.03738 and the glycerate [2] was -0.6693. It also gave a guanine [2] of -0.08848, a guanosine [2] of -0.211 and a hypoxanthine [2] of -0.05987. For the same compound, the indole [2] was -0.08261, the inosine [2] was -0.2117 and the 2_3-Diphosphoglyceric acid [2] was 0.06563. It also gave a 4-phosphopantothenate [2] of -0.011, a 6-phospho-D-gluconate [2] of -0.02789 and an FMN [2] of 0.1069. The IMP [2] was -0.3519, the Pyrophosphate [2] was 0.04971 and the Sedoheptoluse bisphosphate [2] was 0.0295. The cyclic-AMP [2] was 0.009655, the glutathione disulfide [2] was -0.09687 and the lactate [2] was -0.2479. The myo-inositol [2] was -0.35, the nicotinate [2] was -0.2896 and the ornithine [2] was -0.2133. The phosphoenolpyruvate [2] was -0.1566, the pyruvate [2] was -0.275 and the ribose-phosphate [2] was -0.01288. It also gave a sarcosine/alanine [2] of -0.00437, a sn-glycerol-3-phosphate [2] of -0.1431 and a succinate/methylmalonic acid [2] of -0.003665. For the same compound, the uridine [2] was -0.2532 and the xanthosine [2] was -0.2406.
With `Cc1ccc(-c2cc3nc4c(c(O)n3n2)CCCC4)cc1` [MMV006937] the pEC50 [1] was 6.40, the Acetyllysine [2] was 0.001543 and the N-acetyl-L-ornithine [2] was -0.1685. The N-carbamoyl-L-aspartate [2] was 1.991, the NADPH [2] was -0.4265 and the dAMP [2] was -0.0863. For the same compound, the dCMP [2] was -1.279, the dTDP [2] was -1.586 and the dTMP [2] was -1.181. It also gave a dTTP [2] of -2.058, a dihydroorotate [2] of 2.759 and an orotate [2] of -1.871. The DLH [2] was -0.331, the DLS/SDL/SID [2] was -0.7353 and the PD [2] was 0.3712. The PEE [2] was -0.2807, the PVNF [2] was -1.612 and the 3-phosphoglycerate [2] was -0.6487. For the same compound, the ADP-D-glucose [2] was -0.1406, the ATP [2] was -0.4135 and the CDP [2] was -1.006. The D-sedoheptulose-1/7-phosphate [2] was 0.1087, the FAD [2] was 0.1332 and the GMP [2] was -0.07362. For the same compound, the “NAD+” value [2] was 1.3162, the “NADP+” value [2] was -0.2641 and the “Octoluse Bisphosphate” value [2] was -0.3. It also gave a Pyroglutamic acid [2] of -0.3275, a UDP-D-glucose [2] of -0.04224 and a UDP-D-glucuronate [2] of -0.6063. The UDP-N-acetyl-glucosamine [2] was -0.2962, the UDP [2] was -1.454 and the UMP [2] was -1.3. For the same compound, the UTP [2] was -2.161, the a-ketoglutarate [2] was -0.5175 and the citrate/isocitrate [2] was -0.9752. For the same compound, the cytidine [2] was 0.2747, the dATP [2] was 0.08499 and the dGMP/AMP [2] was -0.2088. The fumarate [2] was 0.7624, the glucose-1/6-phosphate [2] was -0.09446 and the glycerate [2] was 0.7002. For the same compound, the guanine [2] was 0.3064, the guanosine [2] was 0.2389 and the hypoxanthine [2] was -0.05386. It also gave an indole [2] of -0.1272, an inosine [2] of -0.07571 and a 2_3-Diphosphoglyceric acid [2] of -0.6436. It also gave a 4-phosphopantothenate [2] of -0.3901, a 6-phospho-D-gluconate [2] of -0.1214 and an FMN [2] of -0.5746. It also gave an IMP [2] of 0.1416, a Pyrophosphate [2] of -0.6696 and a Sedoheptoluse bisphosphate [2] of 0.01407. The cyclic-AMP [2] was -0.2332, the glutathione disulfide [2] was 0.02779 and the lactate [2] was -0.3487. It also gave a myo-inositol [2] of 0.03438, a nicotinate [2] of -0.2273 and an ornithine [2] of -0.08655. The phosphoenolpyruvate [2] was -0.5043, the pyruvate [2] was -0.2395 and the ribose-phosphate [2] was 0.1461. For the same compound, the sarcosine/alanine [2] was 0.1551, the sn-glycerol-3-phosphate [2] was -0.1355 and the succinate/methylmalonic acid [2] was -0.2134. The uridine [2] was -0.8059 and the xanthosine [2] was -0.1801.
